PMC9839475 (Journal of acquired immune deficiency syndromes (1999), 2023)
Like-named read-outs stand apart in the source and are kept apart here. Values belong to the compound of their own block, whether it stands above or below them.

Legend:
HIV-1 = conditions: cited from earlier work
[1] = Cohort 1 intensive PK after a single 100 mg doravirine tablet; design: species or system adolescents with HIV-1; conditions: in vivo, po
[2] = Cohort 2 sparse PK weeks 4-24, DOR FDC once daily; assay type: in vivo, adolescents with HIV-1
[3] = Cohort 2 week 1 intensive PK, DOR FDC once daily; assay type: in vivo, adolescents with HIV-1; conditions: for time at which Cmax occurred: Cohort 2, week 1, oral DOR/3TC/TDF, intensive PK
[4] = Cohort 1 safety through week 2; assay type: in vivo, adolescents with HIV-1
[5] = adults taking 200mg daily; upper PK target of Cohort 1; cited from earlier work
CYP3A = conditions: cited from earlier work
[6] = design: species or system adolescents with HIV-1; conditions: in vivo
[7] = in vivo

Compound: Cn1c(Cn2ccc(C(F)(F)F)c(Oc3cc(Cl)cc(C#N)c3)c2=O)n[nH]c1=O [Doravirine]
lipid levels compared to darunavir/ritonavir (HIV-1): significantly improved lipid levels | discontinuations due to adverse events (HIV-1; week 48, doravirine plus 2 NRTIs, adults naïve to antiretroviral therapy): < 1% | virologic response versus darunavir/ritonavir (HIV-1; week 48, plus 2 NRTIs): not inferior | AUC(0-inf) ([1]; human): 34.8 µM·h | Tmax, median (range) ([1]; human): 3.78 (1.00–7.75) h | Vd/F ([1]; human): 115 L | half-life ([1]; human): 11.8 h | Tmax ([1]; human, Tmax, median (range)): ~4 h | Cl/F, geometric mean (geometric CV%) [1]: 6.75 (43) L/h | geometric mean steady state doravirine concentrations ([2]; Cohort 2, all participants, Week 4 through Week 24): > 560 nM | DOR plasma concentration, geometric mean ([2]; Cohort 2, week 4, predose, N=45, DOR/3TC/TDF once daily): 747 nM | DOR plasma concentration, geometric mean ([2]; Cohort 2, week 8, random time, N=44, DOR/3TC/TDF once daily): 1320 nM | DOR plasma concentration, geometric mean ([2]; Cohort 2, week 12, random time, N=44, DOR/3TC/TDF once daily): 2020 nM | DOR plasma concentration, geometric mean ([2]; Cohort 2, week 24, 0.5–2 hours post dose, N=43, DOR/3TC/TDF once daily): 1870 nM | DOR plasma concentration, geometric mean ([2]; Cohort 2, week 24, predose, N=43, DOR/3TC/TDF once daily): 1090 nM | Cl/F, geometric mean (geometric CV%) ([3]; Cohort 2, week 1, 100 mg daily as DOR FDC, n=10): 10.3 (47) L/h | C24,ss observed, geometric mean (geometric CV%) ([3]; Cohort 2, week 1, 100 mg daily as DOR FDC, n=10, 8/10 switched from efavirenz): 282 (74) nM | Tmax ([3]; human, plasma, oral): ~2 h | Cmax ([3]; human, plasma, po, 100 mg): 2130 nM | Tmax ([3]; human, plasma, po, 100 mg): 1.95 h | participants who died due to adverse event ([4]; Cohort 1, N=9, 100mg single dose, through week 2): 0 (0) n (%) | Grade 3 or 4 adverse events ([4]; human, in vivo, 2 weeks): no Grade 3 or 4 adverse events | participants with at least one Grade 1 or Grade 2 adverse event ([4]; human, in vivo, 2 weeks): 44.4% | tolerability ([4]; in vivo): well tolerated | geometric AUC0–24hr at steady-state [5]: 64 µM·h

Compound: O=C1Nc2ccc(Cl)cc2[C@@](C#CC2CC2)(C(F)(F)F)O1 [efavirenz]
CYP3A induction (CYP3A): moderate CYP3A inducer

Continued, in another order:

time at which Cmax occurred [3]: ~2 h
Compound: Nc1ccn([C@@H]2CS[C@H](CO)O2)c(=O)n1 [lamivudine]

time at which Cmax occurred [3]: approximately 1 hour
Compound: C[C@H](Cn1cnc2c(N)ncnc21)OCP(=O)(O)O [tenofovir]

Alanine Aminotransferase, mean change [95% CI] [6]: 1.2 [−7.3, 9.6] IU/L | Alkaline Phosphatase, mean change [95% CI] [6]: −20.7 [−35.1, −6.3] IU/L | Aspartate Aminotransferase, mean change [95% CI] [6]: 0.8 [−5.1, 6.7] IU/L | Bilirubin, mean change [95% CI] [6]: −0.0 [−0.2, 0.1] mg/dL | Creatinine, mean change [95% CI] [6]: 0.0 [0.0, 0.1] mg/dL | HDL Cholesterol, mean change [95% CI] [6]: −11.3 [−15.9, −6.6] mg/dL | LDL Cholesterol, mean change [95% CI] [6]: −12.5 [−20.7, −4.2] mg/dL | eGFR from Creatinine Adjusted for BSA, mean change [95% CI] [6]: −6.5 [−15.2, 2.2] mL/min/1.73m^2 | grade 3 diarrhea and gastroenteritis [7]: one participant | participants with Grade 1 dizziness assessed as related to the study drug [7]: 2.2% | participants with concomitant grade 3 increased creatinine [7]: 2 | participants with grade 3 decreased eGFR [7]: Three participants
Compound: doravirine/lamivudine/tenofovir disoproxil fumarate [DOR FDC]
grade 3 increased ALT [7]: one participant | participants meeting safety endpoint eGFR <60 ml/min/1.73m^2 [7]: No participant | participants who experienced at least one adverse event [7]: 45 participants | participants with no adverse events [7]: 0 (0) n (%) | participants with one or more Grade 3 or greater adverse events [7]: 9 (20.0) n (%) | participants with one or more Grade 3 or greater drug-related adverse events [7]: 0 (0) n (%) | participants with one or more adverse events [7]: 45 (100.0) n (%) | participants with one or more drug-related adverse events [7]: 1 (2.2) n (%) | participants with one or more grade 3 adverse events [7]: 20% | participants with one or more serious adverse events [7]: 1 (2.2) n (%) | participants with one or more serious drug-related adverse events [7]: 0 (0) n (%) | tolerability [7]: well tolerated
